# US20230183310A1, “Polypeptide Compounds and Use Thereof in the Prevention or Treatment of Diabetes or Diabetic Complications” (Shenzhen Turier Biotech Co., Ltd., priority 2020, published 2023)
# *1 amine or outer side, *2 acyl side, *3 side chain or, on linkers, in order; H or OH if unused. Primed or numbered codes have the meaning given here. Where no end group is shown, it is not given here. Side-chain parts run from the residue outwards. [ ]: non-standard residue; d: D form. The star is where a group is joined. C20 diacid = O=C(O)CCCCCCCCCCCCCCCCCCC(=O)*; γGlu = O=C(O)[C@H](CCC(=O)[*:2])N[*:1]; Iva = CC[C@](C)(N)C(=O)O; PEG2′ = not defined here; Aib = CC(C)(N)C(=O)O
# Assays:
# db/db diabetic mice [1] = assay: Treatment of 12-week-old db/db diabetic mice: blood glucose, OGTT, ITT, ALT/AST, diabetic nephropathy indices; assay type: in vivo; conditions: for weekly blood glucose (hypoglycemic effect): FIG. 4A, blood glucose at normal levels at week 1; for weekly blood glucose (hypoglycemic effect) / improving oral glucose tolerance (OGTT) / improving insulin resistance (ITT) / ALT and AST in serum (hepatoprotective function): 120 μg/kg s.c. daily; for improving oral glucose tolerance (OGTT): FIG. 4B, week 4; for improving insulin resistance (ITT): FIG. 4C, week 5; for ALT and AST in serum (hepatoprotective function): FIG. 4D; for H&E staining of kidneys: glomerular adhesion, ameliorative and therapeutic effects: FIG. 5B; for H&E staining of kidneys: glomerular adhesion, ameliorative and therapeutic effects / PAS staining of kidneys: ameliorative effects on glomerular mesangial region / collagen content (Sirius red, FN and α-SMA staining of kidneys): after 8 weeks; for H&E staining of kidneys: glomerular adhesion, ameliorative and therapeutic effects / collagen content (Sirius red, FN and α-SMA staining of kidneys): compared to semaglutide, SAR425899 and MED C18-acid groups; for PAS staining of kidneys: ameliorative effects on glomerular mesangial region: FIG. 5C; for collagen content (Sirius red, FN and α-SMA staining of kidneys): FIGS. 5D to 5F
# Method: Normal mice born in the same litter; DC group: db/db mice control group). Blood glucose and body weight were measured on alternate days after daily administration of the medicament, and water intake and food intake were measured once a week. OGTT was measured at week 4, insulin tolerance (ITT) was measured at week 5, metabolism of mice was examined using mouse metabolic cages at weeks 6-7, and various serological and pathological indices were taken at week 8.
# Type 2-diabetes mice were characterized by obesity, insulin resistance, hyperglycemia, dyslipidemia and hepatic fat vacuole-like degeneration.
# After 6 weeks of medical treatment, the mice was collected for urine using metabolic cages, and the protein content in the urine was detected using relevant kits. After 7 weeks of medical treatment, the material was taken and blood was used to detect serological indicators such as blood creatinine and urea nitrogen.
# C57BL/6J mice = assay: Oral glucose tolerance (OGTT), repeated glucose loads followed to 24 h after one s.c. dose; assay type: in vivo; conditions: 100 μg/kg subcutaneously; for long-acting hypoglycemic effects compared to semaglutide: four OGTT curves (0-22 h)
# Method: Eight-week-old male C57BL/6J mice (Model Animal Research Center, Nanjing University) were randomly grouped according to similar blood glucose (assessed by blood samples obtained from the tail tip), with six mice in each group. […] The initial blood samples (fasted blood glucose levels) were obtained after about 4 h. Subsequently, an oral dose of glucose (2 g/kg) was administered and the animals were placed back in their holding cages (t=0). […] The oral dose of glucose was then repeated at 8 h of administration, 12 h of administration and […], and blood glucose changes were detected and followed until 24 hours. The data were processed using the software GraphPadPrism to make a line graph of blood glucose changes, and the area under the curve was calculated to obtain an AUC graph, and the results are shown in FIG. 1.
# db/db diabetic mice [2] = assay: Dose determination in 8-week-old db/db diabetic mice: blood glucose and body weight; assay type: in vivo; conditions: for subsequent blood glucose course (long-lasting effect): from day 3 / after days 3-5
# Method: The db/db mice diabetic model (purchased from Nanjing University-Nanjing Institute of Biomedical Research, about 8 weeks, and blood glucose and body weight were measured to ensure the smooth subsequent experiments) was obtained, and the model mice were randomly divided into 12 groups (including polypeptide compounds 3, 8, 13, 15, semaglutide and physiological saline groups), with 6 mice in each group and no difference in basal body weight and blood glucose. Each group was injected subcutaneously with compound 3 (80 and 120 μg/kg, 2 groups), compound 8 (80 and 120 μg/kg, 2 groups), compound 13 (80 and 120 μg/kg, 2 groups), compound 15 (80 and 120 μg/kg, 2 groups), semaglutide (80 and 120 μg/kg, 2 groups) and physiological saline (DN group: normal mice born in the same litter; DC group: db/db mice control group) every day or every other day.
# Blood glucose and body weight of mice were measured after daily administration and 6 h fasting on alternate days.
# FN protein (fibronectin) = assay: Western blot of FN protein in high glucose-induced in vitro renal fibrosis cell model; assay type: cell-based, rat; conditions: 10 μM; 30 mmol/L glucose; 48 h; mesangial and renal epithelial cells
# Source text: Hyperglycemia and increased production of glycosylation end products will cause morphological changes such as proliferation and hypertrophy of glomerular mesangial cells, increase in extracellular matrix (ECM) and mesangial expansion, which will eventually lead to the loss of its physiological function. […] Therefore, this example used high glucose to induce MCS mesangial cells and NRK renal epithelial cells to construct an in vitro renal fibrosis cell model for screening medicaments useful for the treatment of diabetic nephropathy. The renal mesangial cell strain GMC and glomerular epithelial cells mTEC used in this example were both cells kept in the applicant's laboratory (both were extracted from rat renal primary cells) and cultured in low sugar medium containing 10% fetal bovine serum. The cells were starved with serum-free culture medium for 24 h when grew to 70% confluence. The cells were divided into the following 9 groups by adjusting the glucose concentration as follows: […]
# [3] = FIG. 3A, daily s.c., 120 μg/kg, vs saline DC group
# [4] = FIG. 3B, every other day s.c., 80 μg/kg
# [5] = FIG. 3B, every other day s.c., 120 μg/kg
Substance,weekly blood glucose (hypoglycemic effect) (db/db diabetic mice [1]),long-acting hypoglycemic effects compared to semaglutide (C57BL/6J mice),improving oral glucose tolerance (OGTT) (db/db diabetic mice [1]),improving insulin resistance (ITT) (db/db diabetic mice [1]),ALT and AST in serum (hepatoprotective function) (db/db diabetic mice [1]),"H&E staining of kidneys: glomerular adhesion, ameliorative and therapeutic effects (db/db diabetic mice [1])",PAS staining of kidneys: ameliorative effects on glomerular mesangial region (db/db diabetic mice [1]),"collagen content (Sirius red, FN and α-SMA staining of kidneys) (db/db diabetic mice [1])",further results
"His-(D-Ser)-Gln-Gly-Thr-Phe-Thr-Ser-Asp-Tyr-Ser-Lys-Lys(PEG2-PEG2-γGlu-(CH2)17COOH)-Leu-Asp-Ser-Glu-Arg-Ala-Arg-Asp-Phe-Val-Ala-Trp-Leu-Val-Ala-Gly-Gly-NH2 (H[dS]QGTFTSDYSKKLDSERARDFVAWLVAGG-NH2; not fully specified (residue 13); printed as His-(D-Ser)-Gln-Gly-Thr-Phe-Thr-Ser-Asp-Tyr-Ser-Lys-Lys(PEG2-PEG2-γGlu-(CH2)17COOH)-Leu-Asp-Ser-Glu-Arg-Ala-Arg-Asp-Phe-Val-Ala-Trp-Leu-Val-Ala-Gly-Gly-NH2) [MED C18-acid, compound reported in the prior art, synthesized by the applicant, reference compound]",significant hypoglycemic effects,–,–,–,–,–,–,–,–
Semaglutide [reference compound],significant hypoglycemic effects,–,–,–,–,–,–,–,"AUC / improvement in glucose tolerance in all four OGTT curves (C57BL/6J mice; four OGTT curve periods (0-22 h), compared to control PBS): significantly reduced (P<0.05); blood glucose (glucose-lowering effect) (db/db diabetic mice [2]; [3]): better hypoglycemic effect, after which it was maintained at a more stable normoglycemic level, but its hypoglycemic effect was not significant; blood glucose (hypoglycemic effect) (db/db diabetic mice [2]; [4]): the hypoglycemic effect was not significant; blood glucose (hypoglycemic effect) (db/db diabetic mice [2]; [5]): the hypoglycemic effect was not significant; subsequent blood glucose course (long-lasting effect) (db/db diabetic mice [2]; [5]): rebounded on day 3, and its long-lasting effect was not enough"
His-Aib-Gln-Gly-Thr-Phe-Thr-Ser-Asp-Lys(PEG2-PEG2-γGlu-CO(CH2)18CO2H)-Ser-Lys-Tyr-Leu-Asp-Glu-Arg-Ala-Ala-Gln-Asp-Phe-Iva-Gln-Trp-Leu-Leu-Asp-Gly-Gly-Pro-Ser-Ser-Gly-Aib-Pro-Pro-Pro-Ser-NH2 (H[Aib]QGTFTSDK([PEG2′-PEG2′-γGlu-C20 diacid])SKYLDERAAQDF[Iva]QWLLDGGPSSG[Aib]PPPS-NH2) [Compound 8],significant hypoglycemic effects,superior and significant long-acting hypoglycemic effects,performed more excellent,performed more excellent,more excellent hepatoprotective functions,more significant,more significant,improved more significantly,"FN protein expression (Western blot) (FN protein (fibronectin)): inhibited FN expression more significantly; body weight (weight-lowering effect) (db/db diabetic mice [2]; FIG. 3A, daily s.c.): better weight-lowering effect; blood glucose (glucose-lowering effect) (db/db diabetic mice [2]; FIG. 3A, daily s.c., 80 μg/kg): significant glucose-lowering effect; blood glucose (glucose-lowering effect) (db/db diabetic mice [2]; [3]): good glucose-lowering effect in 3-5 days; overall hypoglycemic effect (db/db diabetic mice [2]; FIG. 3B, every other day s.c.): more excellent hypoglycemic effect; blood glucose (hypoglycemic effect) (db/db diabetic mice [2]; [4]): first decrease and then increase, and the overall hypoglycemic effect was significant; blood glucose (hypoglycemic effect) (db/db diabetic mice [2]; [5]): good hypoglycemic effect on days 3-5; subsequent blood glucose course (long-lasting effect) (db/db diabetic mice [2]; [5]): the blood glucose did not change much"
"His-Aib-Gln-Gly-Thr-Phe-Thr-Ser-Asp-Lys(Gly-Gly-Ser-Gly-Ser-Gly-γGlu-CO(CH2)18-COOH)-Ser-Lys-Tyr-Leu-Asp-Glu-Arg-Ala-Ala-Gln-Asp-Phe-Iva-Gln-Trp-Leu-Leu-Asp-Gly-Gly-Pro-Ser-Ser-Gly-Aib-Pro-Pro-Pro-Ser-NH2 (HXQGTFTSDKSKYLDERAAQDFXQWLLDGGPSSGXPPPS; Aib, Iva; γGlu-C20 diacid lipidation; C-terminal amide; (2)..(2) X=Aib; (10)..(10) A side chain of Lys is linked to -Gly-Gly-Ser-Gly-Ser-Gly-AGlu-CO(CH2)18-COOH; (23)..(23) X=Isovaline; (35)..(35) X=Aib) [Compound 16]",significant hypoglycemic effects,–,performed more excellent,performed more excellent,more excellent hepatoprotective functions,more significant,more significant,improved more significantly,–
"His-(D-Ser)-Gln-Gly-Thr-Phe-Thr-Ser-Asp-Lys(Gly-Gly-Ser-Gly-Ser-Gly-γGlu-CO(CH2)18-COOH)-Ser-Lys-Tyr-Leu-Glu-Aib-Lys-Ala-Ala-Gln-Asp-Phe-Val-Glu-Trp-Leu-Lys-Ala-Gly-Gly-Pro-Ser-Ser-Gly-Ala-Pro-Pro-Pro-Ser-NH2 (HXQGTFTSDKSKYLEXKAAQDFVEWLKAGGPSSGAPPPS; D-Ser, Aib; γGlu-C20 diacid lipidation; C-terminal amide; (2)..(2) X=D-Ser; (10)..(10) A side chain of Lys is linked to -Gly-Gly-Ser-Gly-Ser-Gly-AGlu-CO(CH2)18-COOH; (16)..(16) X=Aib) [Compound 14]",significant hypoglycemic effects,superior and significant long-acting hypoglycemic effects,performed more excellent,performed more excellent,more excellent hepatoprotective functions,more significant,more significant,improved more significantly,FN protein expression (Western blot) (FN protein (fibronectin)): inhibited FN expression more significantly
His-Aib-Gln-Gly-Thr-Phe-Thr-Ser-Asp-Lys(PEG2-PEG2-γGlu-CO(CH2)18CO2H)-Ser-Lys-Tyr-Leu-Glu-Aib-Lys-Ala-Ala-Gln-Asp-Phe-Val-Glu-Trp-Leu-Lys-Ala-Gly-Gly-Pro-Ser-Ser-Gly-Ala-Pro-Pro-Pro-Ser-NH2 (H[Aib]QGTFTSDK([PEG2′-PEG2′-γGlu-C20 diacid])SKYLE[Aib]KAAQDFVEWLKAGGPSSGAPPPS-NH2) [Compound 1],–,superior and significant long-acting hypoglycemic effects,–,–,–,–,–,–,–
His-(D-Ser)-Gln-Gly-Thr-Phe-Thr-Ser-Asp-Lys(PEG2-PEG2-CO(CH2)18CO2H)-Ser-Lys-Tyr-Leu-Glu-Aib-Lys-Ala-Ala-Gln-Asp-Phe-Val-Glu-Trp-Leu-Lys-Ala-Gly-Gly-Pro-Ser-Ser-Gly-Ala-Pro-Pro-Pro-Ser-NH2 (H[dS]QGTFTSDK([PEG2′-PEG2′-C20 diacid])SKYLE[Aib]KAAQDFVEWLKAGGPSSGAPPPS-NH2) [Compound 2],–,superior and significant long-acting hypoglycemic effects,–,–,–,–,–,–,–
"His-(D-Ser)-Gln-Gly-Thr-Phe-Thr-Ser-Asp-Leu-Ser-Lys-Gln-Lys(CO(CH2)14CH3)-Glu-Ser-Lys-Ala-Ala-Gln-Asp-Phe-Ile-Glu-Trp-Leu-Lys-Ala-Gly-Gly-Pro-Ser-Ser-Gly-Ala-Pro-Pro-Pro-Ser-NH2 (HXQGTFTSDLSKQKESKAAQDFIEWLKAGGPSSGAPPPS; D-Ser; palmitoyl lysine; C-terminal amide; SAR425899; (2)..(2) X=D-Ser; (14)..(14) A side chain of Lys is linked to -CO(CH2)14CH3) [compound reported in the prior art, synthesized by the applicant, reference compound]",significant hypoglycemic effects,–,–,–,–,–,–,–,–
